Results on twelve compounds are retold here after patent US20220132847A1, “CINNOLINIUM COMPOUNDS FOR USE IN A METHOD OF CONTROLLING UNWANTED PLANT GROWTH” (SYNGENTA CROP PROTECTION AG, priority 2019, published 2022).

What all share (experiment): Post-emergence efficacy, glasshouse
Common to all, as to type: in vivo

Assay [1] deals with Euphorbia heterophylla (EPHHL). The following applies: Euphorbia heterophylla, post-emergence, 312 h; Application Rate 1000 g/Ha; evaluated after 13 days; 100=total damage to plant, 0=no damage to plant; read-out: Control of weed species after post-emergence application, EPHHL. On the procedure:
(§1) Seeds of a variety of test species were sown in standard soil in pots. After cultivation for 14 days (post-emergence) under controlled conditions in a glasshouse (at 24/16° C., day/night; 14 hours light; 65% humidity), the plants were sprayed with an aqueous spray solution derived from the dissolution of the technical active ingredient formula (I) in a small amount of acetone and a special solvent and emulsifier mixture referred to as IF50 (11.12% Emulsogen EL360™+44.44% N-methylpyrrolidone+44.44% Dowanol DPM glycol ether), to create a 50 g/l solution which was then diluted to required concentration using 0.25% or 1% Empicol ESC70 (Sodium lauryl ether sulphate)+1% ammonium sulphate in water as diluent.
(§2) The test plants were then grown in a glasshouse under controlled conditions (at 24/16° C., day/night; 14 hours light; 65% humidity) and watered twice daily. After 13 days the test was evaluated (100=total damage to plant; 0=no damage to plant).
(§3) Ipomoea hederacea (IPOHE), Euphorbia heterophylla (EPHHL), Chenopodium album (CHEAL), Amaranthus palmeri (AMAPA), Lolium perenne (LOLPE), Digitaria sanguinalis (DIGSA), Eleusine indica (ELEIN), Echinochloa crus-galli (ECHCG), Setaria faberi (SETFA)

Assay [2] concerns Digitaria sanguinalis (DIGSA). The following applies: Digitaria sanguinalis, post-emergence, 312 h; Application Rate 1000 g/Ha; evaluated after 13 days; 100=total damage to plant, 0=no damage to plant; read-out: Control of weed species after post-emergence application, DIGSA. Here is the method:
as §1, §2, §3

For a further assay, the system named is Lolium perenne (LOLPE). The following applies: Lolium perenne, post-emergence, 312 h; Application Rate 1000 g/Ha; evaluated after 13 days; 100=total damage to plant, 0=no damage to plant; read-out: Control of weed species after post-emergence application, LOLPE. Here is the method:
as §1, §2, §3

Assay [3] relates to Amaranthus palmeri (AMAPA). The following applies: Amaranthus palmeri, post-emergence, 312 h; Application Rate 1000 g/Ha; evaluated after 13 days; 100=total damage to plant, 0=no damage to plant; read-out: Control of weed species after post-emergence application, AMAPA. On the procedure:
as §1, §2, §3

A further assay has as its system Setaria faberi (SETFA). The following applies: Setaria faberi, post-emergence, 312 h; Application Rate 1000 g/Ha; evaluated after 13 days; 100=total damage to plant, 0=no damage to plant; read-out: Control of weed species after post-emergence application, SETFA. On the procedure: as §1, §2, §3
For assay [4], the system named is Ipomoea hederacea (IPOHE). The following applies: Ipomoea hederacea, post-emergence, 312 h; Application Rate 1000 g/Ha; evaluated after 13 days; 100=total damage to plant, 0=no damage to plant; read-out: Control of weed species after post-emergence application, IPOHE. On the procedure: as §1, §2, §3
A further assay has as its system Eleusine indica (ELEIN). The following applies: Eleusine indica, post-emergence, 312 h; Application Rate 1000 g/Ha; evaluated after 13 days; 100=total damage to plant, 0=no damage to plant; read-out: Control of weed species after post-emergence application, ELEIN. Here is the method:
as §1, §2, §3

The subject of assay [5] is Chenopodium album (CHEAL). The following applies: Chenopodium album, post-emergence, 312 h; Application Rate 1000 g/Ha; evaluated after 13 days; 100=total damage to plant, 0=no damage to plant; read-out: Control of weed species after post-emergence application, CHEAL. On the procedure: as §1, §2, §3
Assay [6] concerns Echinochloa crus-galli (ECHCG). The following applies: Echinochloa crus-galli, post-emergence, 312 h; Application Rate 1000 g/Ha; evaluated after 13 days; 100=total damage to plant, 0=no damage to plant; read-out: Control of weed species after post-emergence application, ECHCG. On the procedure: as §1, §2, §3

Structures can show the parent of a compound that is named as a salt.

For `C[n+]1cc(CCC(=O)O)c2ccccc2n1` [Compound A55, 3-(2-methylcinnolin-2-ium-4-yl)propanoic acid chloride], the pest or weed control at 1000 g/ha came to 70% in assay [1]; 100% in assay [2]; 20% with Lolium perenne (LOLPE); 90% in assay [3]; 30% with Setaria faberi (SETFA); 70% in assay [4]. Also, the pest or weed control at 1000 g/ha in the assay on Eleusine indica (ELEIN) was 100%; in assay [5], 100%; in assay [6], 90%.
In the case of `O=C(O)C[n+]1cc(C(=O)[O-])c2ccccc2n1` [Compound A23, 2-(carboxymethyl)cinnolin-2-ium-4-carboxylate], the pest or weed control at 1000 g/ha in assay [1] worked out at 20%; in assay [2] it was 70%; in the assay on Lolium perenne (LOLPE) it was 10%; in [3] it was 50%; in the assay on Setaria faberi (SETFA) it was 30%; in assay [4], 20%. Besides, the figures for the pest or weed control at 1000 g/ha (with Eleusine indica (ELEIN); in assay [5]; in assay [6]) were 40%, 50% and 30%, respectively.
For `CS(=O)(=O)[N-]C(=O)c1c[n+](CCO)nc2ccccc12` [Compound A21], the pest or weed control at 1000 g/ha in [1] was 80%; in assay [2], 70%; with Lolium perenne (LOLPE), 60%; in [3], 90%; in the assay on Setaria faberi (SETFA), 90%; in assay [4], 80%. Moreover, the pest or weed control at 1000 g/ha came to 80% in the assay with Eleusine indica (ELEIN), 70% in assay [5] and 50% in [6].
Take `COP(=O)(OC)c1c[n+](CCOS(=O)(=O)[O-])nc2ccccc12` [Compound A70]: the pest or weed control at 1000 g/ha in assay [1] stood at 60%; in assay [2] it was 70%; with Lolium perenne (LOLPE), 10%; in assay [3], 50%; in the assay with Setaria faberi (SETFA), 20%; in [4], 30%. Moreover, the pest or weed control at 1000 g/ha turned out to be 80% in the assay with Eleusine indica (ELEIN), 60% in assay [5] and 70% in assay [6].
With `C[n+]1cc(P(=O)([O-])O)c2ccccc2n1` [Compound A78, hydroxy-(2-methylcinnolin-2-ium-4-yl)phosphinate], the pest or weed control at 1000 g/ha amounted to 70% in assay [1]; 50% in assay [2]; 10% in the assay on Lolium perenne (LOLPE); 30% in [3]; 40% with Setaria faberi (SETFA); 10% in [4]. Besides, the pest or weed control at 1000 g/ha is 40% in the assay on Eleusine indica (ELEIN), 10% in [5] and 50% in [6].
In the case of `COC(=O)c1c[n+](C)nc2ccccc12` [Compound A2], the pest or weed control at 1000 g/ha was 70% in assay [1]; 60% in assay [2]; 30% in the assay on Lolium perenne (LOLPE); 100% in assay [3]; 60% in the assay with Setaria faberi (SETFA); 70% in assay [4]. Moreover, the pest or weed control at 1000 g/ha in the assay with Eleusine indica (ELEIN) was 70%; in assay [5] it was 70%; in assay [6], 30%.
Turning to `CC[n+]1cc(C(=O)[N-]S(C)(=O)=O)c2ccccc2n1` [Compound A22, (2-ethylcinnolin-2-ium-4-carbonyl)-methylsulfonyl-azanide], the pest or weed control at 1000 g/ha in [1] turned out to be 60%; in assay [2], 80%; with Lolium perenne (LOLPE) it was 60%; in [3], 70%; in the assay on Setaria faberi (SETFA), 70%; in assay [4], 90%. Moreover, the pest or weed control at 1000 g/ha in the assay on Eleusine indica (ELEIN) stood at 70%; in assay [5], 70%; in [6], 50%.
Take `CCCP(=O)([O-])c1c[n+](C)nc2ccccc12` [Compound A49]: the pest or weed control at 1000 g/ha in [1] was 100%; in assay [2] it was 100%; in the assay with Lolium perenne (LOLPE) it was 30%; in assay [3] it was 100%; with Setaria faberi (SETFA), 90%; in assay [4] it was 90%. For the same compound, the pest or weed control at 1000 g/ha was determined as 100% in the assay on Eleusine indica (ELEIN), 90% in assay [5] and 70% in [6].
Turning to `C[n+]1cc(C(=O)O)c2ccccc2n1` [Compound A3, 2-methylcinnolin-2-ium-4-carboxylic acid methyl sulfate], the pest or weed control at 1000 g/ha turned out to be 30% in assay [1]; 50% in assay [2]; 20% in the assay with Lolium perenne (LOLPE); 20% in [3]; 10% with Setaria faberi (SETFA); 20% in [4]. Also, the pest or weed control at 1000 g/ha turned out to be 60% in the assay with Eleusine indica (ELEIN), 20% in [5] and 30% in [6].
For the compound `CCCS(=O)(=O)[N-]C(=O)c1c[n+](C)nc2ccccc12` [Compound A33], the pest or weed control at 1000 g/ha in [1] was determined as 80%; in assay [2] it was 80%; with Lolium perenne (LOLPE) it was 40%; in [3], 40%; in the assay on Setaria faberi (SETFA), 40%; in assay [4] it was 60%. Moreover, the pest or weed control at 1000 g/ha was 70% in the assay on Eleusine indica (ELEIN), 40% in assay [5] and 20% in assay [6].
As to `C[n+]1cc(C(=O)Nc2nncs2)c2ccccc2n1` [Compound A26], the pest or weed control at 1000 g/ha in [1] was 20%; in assay [2], 0%; in the assay with Lolium perenne (LOLPE) it was 10%; in assay [3] it was 20%; in the assay with Setaria faberi (SETFA) it was 10%; in assay [4], 30%. The pest or weed control at 1000 g/ha was 20% in the assay on Eleusine indica (ELEIN), 40% in assay [5] and 20% in [6].
As for `CS(=O)(=O)[N-]C(=O)c1c[n+](CC(F)F)nc2ccccc12` [Compound A14, [2-(2,2-difluoroethyl)cinnolin-2-ium-4-carbonyl]-methylsulfonyl-azanide], the pest or weed control at 1000 g/ha amounted to 40% in [1]; 40% in assay [2]; 0% with Lolium perenne (LOLPE); 20% in assay [3]; 30% in the assay on Setaria faberi (SETFA); 40% in assay [4]. Further, the pest or weed control at 1000 g/ha in the assay on Eleusine indica (ELEIN) was found to be 30%; in assay [5], 20%; in assay [6], 20%.
